Molecular target: CDK2/Cyclin E1 (Homo sapiens, UniProt P24941)
Test: CDK2/Cyclin E1 Caliper LabChip EZ Reader mobility shift assay
Type: biochemical
Design: purchased Eurofins 14-475
Settings: read-out: Caliper Assay (CDK2/CCNE1): IC50
In short: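 Mobility-shift kinase assay: compound titrations preincubated 30 min with enzyme and ATP, reaction started with 5-FAM-QSPKKG-CONH2 peptide. Final 2.5 nM CDK2/Cyclin E1, 100 μM ATP, 1.5 μM peptide, HEPES pH 7.5; stopped with EDTA after 100 min. IC50 from four-parameter fit of normalized conversion ratio.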

Row | IC50 | SMILES
1 | ≤ 10 nM | C[C@@H](OCC1CCC(F)(F)CC1)[C@H](NC(=O)[C@@H]1CN(C(=O)c2cn[nH]c2)CC12CN(C(=O)[C@H]1CC1(C)C)C2)C(=O)N1CCOCC1 [I-301, (S)—N-((2S,3R)-3-((4,4-difluorocyclohexyl)methoxy)-1-morpholino-1-oxobutan-2-yl)-2-((S)-2,2-dimethylcyclopropane-1-carbonyl)-6-(1H-pyrazole-4-carbonyl)-2,6-diazaspiro[3.4]octane-8-carboxamide]
2 | 10 to 100 nM | C[C@@H](OCC1CCC(F)(F)CC1)[C@H](NC(=O)[C@@H]1CN(C(=O)c2cn[nH]c2)CC12CN(C(=O)C1(C(F)(F)F)CC1)C2)C(=O)N1CCC(F)(F)CC1 [I-188A]
3 | 100 to 1000 nM | CC1(C)C[C@@H]1C(=O)N1CC2(CN(C(=O)c3cnn(Cc4ccccc4)c3)C[C@H]2C(=O)N[C@H]2CCc3cc(Cl)ccc32)C1 [I-120A]
4 | ≤ 10 nM | CNC(=O)[C@@H](NC(=O)[C@@H]1CN(C(=O)c2cnn(Cc3ccccc3)c2)CC12CN(C(=O)[C@H]1CC1(C)C)C2)C1(OCC2CCCCC2)CC1 [I-396]
5 | > 10000 nM | CNC(=O)[C@@H](NC(=O)[C@H]1CN(C(=O)c2cnn(Cc3ccccc3)c2)CC12CN(C(=O)C1(C3CC3)CC1)C2)[C@@H](C)OCc1ccccc1 [I-114B]
6 | 100 to 1000 nM | C[C@@H](OCC1CCC(F)(F)CC1)[C@H](NC(=O)[C@H]1CN(C(=O)c2cn[nH]c2)CC12CN(C(=O)[C@H]1CC1(C)C)C2)C(=O)N1CCC(F)(F)CC1 [I-228B]
7 | 10 to 100 nM | C[C@@H](OCc1ccccc1)[C@H](NC(=O)C1CN(C(=O)c2cnn(Cc3ccccc3)c2)CC12CN(C(=O)[C@H]1CC1(C)C)C2)C(=O)N1CCCC(CO)C1 (stereo partly shown) [I-98]
8 | ≤ 10 nM | C[C@@H](OCC1CCC(F)(F)CC1)[C@H](NC(=O)[C@@H]1CN(C(=O)c2cncs2)CC12CN(C(=O)[C@H]1CC1(C)C)C2)C(=O)N1CCC2(CC1)COC2 [I-335]
9 | > 10000 nM | CNC(=O)[C@@H](NC(=O)[C@@H]1CN(C(=O)c2scnc2C2CC2)CC12CN(C(=O)[C@H]1CC1(C)C)C2)[C@@H](C)OCC1CCCCC1 [I-185A]
10 | ≤ 10 nM | C[C@@H](OCC1CCC(F)(F)CC1)[C@H](NC(=O)[C@@H]1CN(C(=O)c2cncs2)CC12CN(C(=O)C(C)(C)C1CC1)C2)C(=O)N1CCC(O)CC1 [I-337]
11 | > 10000 nM | CNC(=O)[C@@H](NC(=O)[C@H]1CN(Cc2cncs2)CC12CN(C(=O)[C@H]1CC1(C)C)C2)[C@@H](C)OCc1ccccc1 [I-51B]
12 | ≤ 10 nM | C[C@@H](OCC1CCCCC1)[C@H](NC(=O)[C@@H]1CN(C(=O)c2cnn(Cc3ccccc3)c2)CC12CN(C(=O)[C@H]1CC1(C)C)C2)C(=O)N1CCC(c2nccs2)CC1 [I-445]
13 | ≤ 10 nM | C[C@@H](OCC12CCC(CC1)OC2)[C@H](NC(=O)[C@@H]1CN(C(=O)c2cncs2)CC12CN(C(=O)[C@H]1CC1(C)C)C2)C(=O)N1CCCC2(COC2)C1 [I-453]
14 | 1000 to 10000 nM | C[C@@H](OCC1CCCCC1)[C@H](NC(=O)[C@H]1CN(C(=O)c2cnn(Cc3ccccc3)c2)CC12CN(C(=O)[C@H]1CC1(C)C)C2)C(=O)N1CCOCC1 [I-152B]
15 | 100 to 1000 nM | CNC(=O)[C@@H](NC(=O)[C@@H]1CN(C(=O)c2cnn(Cc3ccccc3)c2)CC12CN(C(=O)CC(C)C)C2)[C@@H](C)OCc1ccccc1 [I-69A]
16 | > 10000 nM | COc1ccc(CNC(=O)[C@@H]2CN(C(=O)c3cnn(Cc4ccccc4)c3)CC23CN(C(=O)[C@H]2CC2(C)C)C3)nn1 [I-371]
17 | 1000 to 10000 nM | COC[C@H]1CCCN(C(=O)[C@@H](NC(=O)[C@@H]2CN(C(=O)c3cnn(Cc4ccccc4)c3)CC23CN(C(=O)[C@H]2CC2(C)C)C3)[C@@H](C)OC)C1 [I-283]
18 | ≤ 10 nM | C[C@@H](OCC1CCCCC1)[C@H](NC(=O)[C@@H]1CN(C(=O)c2cnn(Cc3ccccc3)c2)CC12CN(C(=O)[C@H]1CC1(C)C)C2)C(=O)O [I-477]
19 | > 10000 nM | CNC(=O)[C@@H](NC(=O)[C@H]1CN(C(=O)c2c[nH]c3ccccc23)CC12CN(C(=O)[C@H]1CC1(C)C)C2)[C@@H](C)OCc1ccccc1 [I-72B]
20 | > 10000 nM | CNC(=O)[C@@H](NC(=O)[C@@H]1CN(C(=O)c2cnn(Cc3ccccc3)c2)CC12CN(C(=O)CC1(COC)CC1)C2)[C@@H](C)OCc1ccccc1 [I-82A]
21 | > 10000 nM | CNC(=O)[C@@H](NC(=O)[C@H]1CN(C(=O)c2nccs2)CC12CN(C(=O)[C@H]1CC1(C)C)C2)[C@@H](C)OCC1CCCCC1 [I-146]
22 | 100 to 1000 nM | CNC(=O)[C@@H](NC(=O)C1CN(C(=O)c2cnn(Cc3cccnc3)c2)CC12CN(C(=O)C1CC1(C)C)C2)[C@@H](C)OCc1ccccc1 (stereo partly shown) [I-15]
23 | > 10000 nM | CNC(=O)[C@H](CCCc1ccccc1)NC(=O)[C@H]1CN(C(=O)c2cnn(Cc3ccccc3)c2)CC12CN(C(=O)[C@H]1CC1(C)C)C2 [I-101B]
24 | ≤ 10 nM | COC[C@H]1CCCN(C(=O)[C@@H](NC(=O)[C@@H]2CN(C(=O)c3cncs3)CC23CN(C(=O)[C@H]2CC2(C)C)C3)[C@@H](C)OC(C)C2CCC(F)(F)CC2)C1 (stereo partly shown) [I-360]
25 | 100 to 1000 nM | CNC(=O)[C@@H](NC(=O)[C@@H]1CN(C(=O)c2cnn(Cc3ccccc3)c2)CC12CN(C(=O)C(C)C)C2)[C@@H](C)OCc1ccccc1 [I-54A]

Row | IC50 | SMILES
26 | ≤ 10 nM | CNC(=O)[C@@H](NC(=O)[C@@H]1CN(C(=O)c2cncs2)CC12CN(C(=O)[C@H]1CC1(C)C)C2)[C@@H](C)OCC1CCCC2(CC2)C1 (stereo partly shown) [I-370]
27 | ≤ 10 nM | C[C@@H]1C[C@H](C)CN(C(=O)[C@@H](NC(=O)C2CN(C(=O)c3cncs3)CC23CN(C(=O)[C@H]2CC2(C)C)C3)[C@@H](C)OCC2CCCCC2)C1 (stereo partly shown) [I-172]
28 | 100 to 1000 nM | CNC(=O)[C@@H](NC(=O)[C@@H]1CN(C(=O)c2cnn(Cc3ccccc3)c2)CC12CN(C(=O)[C@H]1CC1(C)C)C2)[C@@H](C)OCc1ccccc1O [I-251]
29 | ≤ 10 nM | COC[C@H]1CCCN(C(=O)[C@@H](NC(=O)C2CN(C(=O)c3cncs3)CC23CN(C(=O)[C@H]2CC2(C)C)C3)[C@@H](C)OCC2CCCCC2)C1 (stereo partly shown) [I-196 mixture]
30 | > 10000 nM | CNC(=O)[C@@H](NC(=O)[C@@H]1CN(Cc2cncs2)CC12CN(C(=O)[C@H]1CC1(C)C)C2)[C@@H](C)OCc1ccccc1 [I-51A]
31 | 1000 to 10000 nM | CC1(C)C[C@@H]1C(=O)N1CC2(CN(C(=O)c3cnn(Cc4ccccc4)c3)C[C@@H]2C(=O)Nc2cccc(-c3ccccc3)c2)C1 [I-63B]
32 | 10 to 100 nM | CNC(=O)C(NC(=O)[C@@H]1CN(C(=O)c2cncs2)CC12CN(C(=O)[C@H]1CC1(C)C)C2)c1cccc(C2CCC(F)(F)CC2)n1 (stereo partly shown) [I-411]
33 | 100 to 1000 nM | C[C@@H](OCC1(C(F)(F)F)CC1)[C@H](NC(=O)[C@@H]1CN(C(=O)c2cncs2)CC12CN(C(=O)[C@H]1CC1(C)C)C2)C(=O)N1CCCCC1 [I-285]
34 | 1000 to 10000 nM | CNC(=O)[C@@H](NC(=O)[C@H]1CN(C(=O)c2cn[nH]c2)CC12CN(C(=O)[C@H]1CC1(C)C)C2)[C@@H](C)OCC1CCCCC1 [I-66B]
35 | > 10000 nM | CNC(=O)[C@@H](NC(=O)[C@H]1CN(C(=O)c2sc(C)nc2C)CC12CN(C(=O)[C@H]1CC1(C)C)C2)[C@@H](C)OCC1CCCCC1 [I-213B]
36 | > 10000 nM | CNC(=O)[C@@H](NC(=O)[C@@H]1CN(C(=O)c2cncs2)CC12CN(C(=O)[C@H]1CC1(C)C)C2)[C@H](O)CC1CCCCC1 [I-379]
37 | 100 to 1000 nM | COC[C@H]1CCCN(C(=O)[C@@H](NC(=O)[C@@H]2CN(C(=O)c3cncs3)CC23CN(S(=O)(=O)C(C)(C)C)C3)[C@@H](C)OCC2CCCCC2)C1 [I-447, (S)-2-(tert-butylsulfonyl)-N-((2S,3R)-3-(cyclohexylmethoxy)-1-((S)-3-(methoxymethyl)piperidin-1-yl)-1-oxobutan-2-yl)-6-(thiazole-5-carbonyl)-2,6-diazaspiro[3.4]octane-8-carboxamide]
38 | > 10000 nM | COCCNC(=O)[C@H]1CN(C(=O)c2cnn(Cc3ccccc3)c2)CC12CN(C(=O)[C@H]1CC1(C)C)C2 [I-122B]
39 | ≤ 10 nM | C[C@@H](OCC1CCCCC1)[C@H](NC(=O)[C@@H]1CN(C(=O)c2cnn(Cc3ccccc3)c2)CC12CN(C(=O)[C@H]1CC1(C)C)C2)C(=O)N1CCC[C@H](C(=O)O)C1 [I-483]
40 | 1000 to 10000 nM | CNC(=O)[C@@H](NC(=O)[C@@H]1CN(C(=O)c2cnn(Cc3ccccc3)c2)CC12CN(C(=O)C(C)C1CC1)C2)[C@@H](C)OCc1ccccc1 (stereo partly shown) [I-277]
41 | 10 to 100 nM | CNC(=O)[C@@H](NC(=O)[C@@H]1CN(C(=O)c2cnn(Cc3ccccc3)c2)CC12CN(C(=O)[C@H]1CC1(C)C)C2)[C@@H](C)OCC1CCCC1 [I-110A]
42 | > 10000 nM | CNC(=O)[C@@H](NC(=O)[C@@H]1CN(C(=O)Cc2cnn(Cc3ccccc3)c2)CC12CN(C(=O)[C@H]1CC1(C)C)C2)[C@@H](C)OCc1ccccc1 [I-373]
43 | > 10000 nM | CN1CC[C@@H](NC(=O)[C@@H]2CN(C(=O)c3cnn(Cc4ccccc4)c3)CC23CN(C(=O)[C@H]2CC2(C)C)C3)C1=O [I-258]
44 | ≤ 10 nM | CNC(=O)[C@@H](NC(=O)[C@@H]1CN(C(=O)c2cnn(Cc3ccccc3)c2)CC12CN(C(=O)[C@H]1CC1(C)C)C2)[C@@H](C)OCC1CCCCCC1 [I-166A]
45 | ≤ 10 nM | C[C@@H](OCC1CCCCC1)[C@H](NC(=O)C1CN(C(=O)c2cnn(Cc3ccccc3)c2)CC12CN(C(=O)[C@H]1CC1(C)C)C2)C(=O)NCCC(=O)O (stereo partly shown) [I-353]
46 | > 10000 nM | CNC(=O)[C@@H](NC(=O)[C@@H]1CN(C(=O)c2cnc[nH]2)CC12CN(C(=O)[C@H]1CC1(C)C)C2)[C@@H](C)OCc1ccccc1 [I-44A]
47 | > 10000 nM | CNC(=O)[C@@H](NC(=O)[C@H]1CN(C(=O)c2cnn(Cc3ccccc3)c2)CC12CN(C(=O)C1(CCF)CC1)C2)[C@@H](C)OCc1ccccc1 [I-117B]
48 | ≤ 10 nM | C[C@@H](OCC1CCCCC1)[C@H](NC(=O)[C@@H]1CN(C(=O)c2cnn(Cc3ccccc3)c2)CC12CN(C(=O)[C@H]1CC1(C)C)C2)C(=O)N1CC(CN)C1 [I-239]
49 | > 10000 nM | CNC(=O)[C@@H](NC(=O)[C@H]1CN(C(=O)c2cnc(C3CC3)s2)CC12CN(C(=O)[C@H]1CC1(C)C)C2)[C@@H](C)OCC1CCCCC1 [I-178B]

— patent US20240174680A1, “CDK2 INHIBITORS AND METHODS OF USING THE SAME” (Cedilla Therapeutics, Inc., priority 2021, published 2024)
